# Test results from article PMC9133015 (Nature Communications, 2022).
# pIC50: −log10 of the molar value. “And” between values parts separate entries of the source, which are not always exact repeats. Equal values may be shown once. Read-outs that look alike come from different tables or passages of the source.
# Legend:
# DYRK2 = biological target: T1, DYRK2 (Homo sapiens, UniProt Q92630); test: DYRKs kinase activity assay (33P-ATP, DYRKtide substrate): DYRK2; assay type: biochemical
# T1 construct: purchased Reaction Biology Corporation (assay service)
# T1 sequence (Q92630 1-601): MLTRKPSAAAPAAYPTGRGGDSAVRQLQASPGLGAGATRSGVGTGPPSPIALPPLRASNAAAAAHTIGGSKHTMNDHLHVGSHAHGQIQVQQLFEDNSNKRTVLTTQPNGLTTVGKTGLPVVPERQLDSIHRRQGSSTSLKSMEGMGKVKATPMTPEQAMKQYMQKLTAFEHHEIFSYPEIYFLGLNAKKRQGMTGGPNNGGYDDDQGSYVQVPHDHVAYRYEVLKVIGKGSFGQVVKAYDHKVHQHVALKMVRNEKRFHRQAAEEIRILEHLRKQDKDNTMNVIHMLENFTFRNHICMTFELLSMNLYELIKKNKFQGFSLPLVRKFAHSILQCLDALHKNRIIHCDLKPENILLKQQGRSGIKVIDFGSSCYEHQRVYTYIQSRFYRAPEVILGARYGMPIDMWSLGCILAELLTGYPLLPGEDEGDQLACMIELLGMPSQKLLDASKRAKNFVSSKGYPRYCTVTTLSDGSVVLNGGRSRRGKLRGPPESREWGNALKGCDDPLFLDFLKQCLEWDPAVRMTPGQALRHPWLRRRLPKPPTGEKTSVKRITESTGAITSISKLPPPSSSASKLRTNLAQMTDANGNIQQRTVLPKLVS
# DYRK1A = biological target: T2, DYRK1A (Homo sapiens, UniProt Q13627); test: DYRKs kinase activity assay (33P-ATP, DYRKtide substrate): DYRK1A; assay type: biochemical
# T2 construct: purchased Reaction Biology Corporation (assay service)
# p-4E-BP1 (Thr37/46) = test: Western blotting analysis of indicated proteins in PCa cells; assay type: cell-based, human; conditions: 48 h treatment
# Pharmacokinetic profiles = assay type: in vivo; conditions: SD rats
structure (smiles),measurement,setting,value
CCN1CCN(C(=O)c2ccc(Nc3ncc(F)c(-c4ccc5nc(N(C)C)sc5c4)n3)nc2)CC1 [YK-2-69],inhibition at 0.00228624 µM,"DYRK2; 0.00228624 µM, duplicates, read-out: % Inhibition DYRK2",26.1%
same,inhibition at 0.00685871 µM,"DYRK2; 0.00685871 µM, duplicates, read-out: % Inhibition DYRK2",53%
same,inhibition at 0.0205761 µM,"DYRK2; 0.0205761 µM, duplicates, read-out: % Inhibition DYRK2",65.2%
same,inhibition at 0.0617284 µM,"DYRK2; 0.0617284 µM, duplicates, read-out: % Inhibition DYRK2",82.1%
same,inhibition at 0.185185 µM,"DYRK2; 0.185185 µM, duplicates, read-out: % Inhibition DYRK2",94.1%
same,inhibition at 0.555556 µM,"DYRK2; 0.555556 µM, duplicates, read-out: % Inhibition DYRK2",96.8%
same,inhibition at 5 µM,"DYRK2; 5 µM, duplicates, read-out: % Inhibition DYRK2",97.8%
same,pIC50,DYRK2; read-out: DYRK2 IC50,8.05
same,pIC50,DYRK1A,< 6.00
same,% Inhibition DYRK1A,"DYRK1A; 0.000508053 µM, duplicates",-3.57% and 0.43%
same,% Inhibition DYRK1A,"DYRK1A; 0.00152416 µM, duplicates",-1.37% and 1.70%
same,% Inhibition DYRK1A,"DYRK1A; 0.00457247 µM, duplicates",3.49% and -1.24%
same,% Inhibition DYRK1A,"DYRK1A; 0.0137174 µM, duplicates",0.24% and -4.62%
same,% Inhibition DYRK1A,"DYRK1A; 0.0411523 µM, duplicates",-1.12% and -1.40%
same,% Inhibition DYRK1A,"DYRK1A; 0.123457 µM, duplicates",14.11%
same,inhibition at 0.123457 µM,"DYRK1A; 0.123457 µM, duplicates",10.3%
same,% Inhibition DYRK1A,"DYRK1A; 0.37037 µM, duplicates",34.28%
same,inhibition at 0.37037 µM,"DYRK1A; 0.37037 µM, duplicates",26%
same,% Inhibition DYRK1A,"DYRK1A; 1.11111 µM, duplicates",40.80%
same,inhibition at 1.11111 µM,"DYRK1A; 1.11111 µM, duplicates",45.5%
same,% Inhibition DYRK1A,"DYRK1A; 3.33333 µM, duplicates",66.09%
same,inhibition at 3.33333 µM,"DYRK1A; 3.33333 µM, duplicates",64.9%
same,% Inhibition DYRK1A,"DYRK1A; 10 µM, duplicates",69.07%
same,inhibition at 10 µM,"DYRK1A; 10 µM, duplicates",68.2%
same,selectivity over DYRK1A,DYRK1A; vs DYRK2,more than 100 fold
same,phosphorylation of 4E-BP1,p-4E-BP1 (Thr37/46),inhibited the phosphorylation of 4E-BP1 in a dose-dependent manner
same,Con. (individual rats NO.1-3),"Pharmacokinetic profiles; IV 1 mg/kg, 0.033 h, 1 mg/kg",1120 ng/mL and 712 ng/mL
same,Con. (individual rats NO.1-3),"Pharmacokinetic profiles; IV 1 mg/kg, 0.083 h, 1 mg/kg",959 ng/mL and 574 ng/mL
same,Con. (individual rats NO.1-3),"Pharmacokinetic profiles; IV 1 mg/kg, 0.25 h, 1 mg/kg",611 ng/mL and 402 ng/mL
same,Con. (individual rats NO.1-3),"Pharmacokinetic profiles; IV 1 mg/kg, 0.5 h, 1 mg/kg",480 ng/mL and 383 ng/mL
same,Con. (individual rats NO.1-3),"Pharmacokinetic profiles; IV 1 mg/kg, 1 h, 1 mg/kg",355 ng/mL and 310 ng/mL
same,Con. (individual rats NO.1-3),"Pharmacokinetic profiles; IV 1 mg/kg, 2 h, 1 mg/kg",199 ng/mL and 175 ng/mL
same,Con. (individual rats NO.1-3),"Pharmacokinetic profiles; IV 1 mg/kg, 4 h, 1 mg/kg",96.9 ng/mL and 91.7 ng/mL
same,Con. (individual rats NO.1-3),"Pharmacokinetic profiles; IV 1 mg/kg, 6 h, 1 mg/kg",63.9 ng/mL and 64.4 ng/mL
same,Con. (individual rats NO.1-3),"Pharmacokinetic profiles; IV 1 mg/kg, 8 h, 1 mg/kg",45.3 ng/mL and 36.2 ng/mL
same,Con. (individual rats NO.1-3),"Pharmacokinetic profiles; IV 1 mg/kg, 12 h, 1 mg/kg",14.4 ng/mL
same,Con. (individual rats NO.1-3),"Pharmacokinetic profiles; PO 10 mg/kg, 0.083 h, 10 mg/kg",9.74 ng/mL and 9.99 ng/mL
same,Con. (individual rats NO.1-3),"Pharmacokinetic profiles; PO 10 mg/kg, 0.25 h, 10 mg/kg",82.5 ng/mL and 106 ng/mL
same,Con. (individual rats NO.1-3),"Pharmacokinetic profiles; PO 10 mg/kg, 0.5 h, 10 mg/kg",228 ng/mL and 221 ng/mL
same,Con. (individual rats NO.1-3),"Pharmacokinetic profiles; PO 10 mg/kg, 1 h, 10 mg/kg",437 ng/mL and 376 ng/mL
same,Con. (individual rats NO.1-3),"Pharmacokinetic profiles; PO 10 mg/kg, 2 h, 10 mg/kg",729 ng/mL and 559 ng/mL
same,Con. (individual rats NO.1-3),"Pharmacokinetic profiles; PO 10 mg/kg, 4 h, 10 mg/kg",695 ng/mL and 609 ng/mL
same,Con. (individual rats NO.1-3),"Pharmacokinetic profiles; PO 10 mg/kg, 6 h, 10 mg/kg",538 ng/mL and 544 ng/mL
same,Con. (individual rats NO.1-3),"Pharmacokinetic profiles; PO 10 mg/kg, 8 h, 10 mg/kg",435 ng/mL and 507 ng/mL
same,Con. (individual rats NO.1-3),"Pharmacokinetic profiles; PO 10 mg/kg, 12 h, 10 mg/kg",220 ng/mL and 279 ng/mL
same,Con. (individual rats NO.1-3),"Pharmacokinetic profiles; PO 10 mg/kg, 24 h, 10 mg/kg",38.4 ng/mL and 66 ng/mL
same,concentration at 0.033 h,"Pharmacokinetic profiles; SD, rat, serum, iv, 1 mg/kg, IV 1 mg/kg, 0.033 h, read-out: Con. (individual rats NO.1-3)",1090 ng/mL
same,concentration at 2 h,"Pharmacokinetic profiles; SD, rat, serum, iv, 1 mg/kg, IV 1 mg/kg, 2 h, read-out: Con. (individual rats NO.1-3)",209 ng/mL
same,concentration at 2 h,"Pharmacokinetic profiles; SD, rat, serum, iv, 1 mg/kg, IV 1 mg/kg, 2 h, read-out: Con. Mean",194 ng/mL
